Data as given in ChEMBL document CHEMBL5528047, “A Potent SOS1 PROTAC Degrader with Synergistic Efficacy in Combination with KRASG12C Inhibitor” (J Med Chem, 2024).
The source made the active and inactive calls. The calls are words filed in the database; no cut-off is given here.

Tests used:
MIA PaCa-2 [1] = test: Inhibition of ERK phosphorylation in human MIA PaCa-2 cells at 300 nM after 24 hrs; type: cell-based
MIA PaCa-2 [2] = test: Upregulation of SOS1 protein in human MIA PaCa-2 cells; type: functional, cell-based
MIA PaCa-2 [3] = test: (§1) Antiproliferative activity against human MIA PaCa-2 cells incubated for 6 days in presence of 1 uM (2S,4R)-1-((S)-2-(5-((4-(((R)-1-(3-amino-5-(trifluoromethyl)phenyl)ethyl)amino)-7-methoxy-2-methylquinazolin-6-yl)oxy)pentanamido)-3,3-dimethylbutanoyl)-4-hydroxy-N-(4-(4-methylthiazol-5-yl)benzyl)pyrrolidine-2-carboxamide by CCK8 assay; type: functional, cell-based; conditions: MIA PaCa-2, 144 h
[4] = Stability in human NCI-H358 cells assessed as compound remaining at 0.2 mM after 72 hrs by HPLC analysis; type: ADME, cell-based; conditions: read-out: Stability
NCI-H358 [5] = test: Inhibition of ERK phosphorylation in human NCI-H358 cells at 300 nM after 24 hrs; type: cell-based
NCI-H358 [6] = test: as §1, with “human NCI-H358” for “human MIA PaCa-2”, “of 10” for “of 1”; type: functional, cell-based; conditions: NCI-H358, 144 h
NCI-H358 [7] = test: Inhibition of RAS pathway in SOS1 knockout human NCI-H358 cells at 100 nM; type: cell-based
MIA PaCa-2 [8] = test: Inhibition of RAS pathway in SOS1 knockout human MIA PaCa-2 cells at 100 nM; type: cell-based
MIA PaCa-2 [9] = test: Inhibition of ERK phosphorylation in human MIA PaCa-2 cells at 100 nM after 24 to 72 hrs in presence of BI3406 by Western blotting analysis; type: cell-based; conditions: time 24-72 hrs
SW837 [10] = test: Antiproliferative activity against human SW837 cells incubated for 6 days by CCK8 assay; type: functional, cell-based; conditions: SW837, 144 h
NCI-H358 [11] = test: as §1, with “NCI-H358” for “MIA PaCa-2”; type: functional, cell-based; conditions: NCI-H358, 144 h
MIA PaCa-2 [12] = test: Antiproliferative activity against human MIA PaCa-2 cells incubated for 6 days by CCK8 assay; type: functional, cell-based; conditions: MIA PaCa-2, 144 h
SW837 [13] = test: as §1, with “human SW837” for “human MIA PaCa-2”, “of 10” for “of 1”; type: functional, cell-based; conditions: SW837, 144 h
NCI-H358 [14] = test: Antiproliferative activity against human NCI-H358 cells incubated for 6 days by CCK8 assay; type: functional, cell-based; conditions: NCI-H358, 144 h
MIA PaCa-2 [15] = test: as §1, with “of 10” for “of 1”; type: functional, cell-based; conditions: MIA PaCa-2, 144 h
[16] = Stability in human MIA PaCa-2 cells assessed as compound remaining at 0.2 mM after 72 hrs by HPLC analysis; type: ADME, cell-based; conditions: read-out: Stability
SW837 [17] = test: as §1, with “SW837” for “MIA PaCa-2”; type: functional, cell-based; conditions: SW837, 144 h
NCI-H358 [18] = test: Upregulation of SOS1 protein in human NCI-H358 cells; type: functional, cell-based
NCI-H358 [19] = test: Antitumor activity against human NCI-H358 cells xenografted in BALB/c mouse assessed as tumor growth inhibition at 10 mg/kg, ip administered once daily for 28 days; type: functional; conditions: NCI-H358, 672 h, time 28 day, read-out: TGI

In the case of `C=CC(=O)N1CCN(c2nc(=O)n(-c3c(C)ccnc3C(C)C)c3nc(-c4c(O)cccc4F)c(F)cc23)[C@@H](C)C1` [SOTORASIB], the inhibition (MIA PaCa-2 [1]) is reported as “Active”, the Activity (MIA PaCa-2 [2]) is reported as “Active” and the IC50 (MIA PaCa-2 [3]) is reported as 13 nM. The remaining at 72 h, 200 µM [4] was > 70%, the inhibition (NCI-H358 [5]) was “Active” and the IC50 (NCI-H358 [6]) was 1 nM. The inhibition (NCI-H358 [7]) was “Active”, the inhibition (MIA PaCa-2 [8]) was “Active” and the inhibition (MIA PaCa-2 [9]) was “Active”. It also gave an IC50 (SW837 [10]) of 9 nM, an IC50 (NCI-H358 [11]) of 4 nM and an IC50 (MIA PaCa-2 [12]) of 37 nM. For the same compound, the IC50 (SW837 [13]) was 2 nM, the IC50 (NCI-H358 [14]) was 10 nM and the IC50 (MIA PaCa-2 [15]) was 6 nM. For the same compound, the remaining at 72 h, 200 µM [16] was > 70%, the IC50 (SW837 [17]) was 3 nM and the Activity (NCI-H358 [18]) was “Active”. For the same compound, the inhibition in vivo at 10 mg/kg (NCI-H358 [19]) was 34.9%.
